Key:
GRPR = biological target: T1, GRPR (Homo sapiens, UniProt P30550); assay: Competitive displacement assay on stably GRPR-transfected HEK-293 cells, [125I]I-Tyr4-bombesin as competitor; type: binding; conditions: GRPR-expressing HEK cells, mean ± SD
T1 construct: host or cells: HEK-293 (HEK-GRPR), stably transfected
Procedure: Each compound was evaluated at least three times, each experiment being performed in triplicate. […] The respective cells were harvested and re-suspended in the binding buffer to give a cell concentration of 2 × 10^6/mL. […] Using a Millipore MultiScreen disposable punch and a Millipore MultiScreen punch kit, the filters of the well plate were collected in γ-counter tubes separately and measured by γ-counting.

[1] = LogD determination: partition between 1-octanol and phosphate buffer pH 7.4
Procedure: In the following, the lipophilicity of the labeled conjugates was investigated to get a first idea of the potential excretion pathway of the agents during an in vivo application. The logD values were determined by partition experiments between n-octanol and aqueous solution at pH 7.4.
The mixtures were intensively shaken for 5 min on a vibrating plate. After subsequent centrifugation at 13,000 rpm for 5 min, 125 µL were taken from each phase and measured in a γ-counter. The logD values were calculated from three or four independent experiments, each performed in triplicate.

T1 sequence (P30550 whole entry, species assumed): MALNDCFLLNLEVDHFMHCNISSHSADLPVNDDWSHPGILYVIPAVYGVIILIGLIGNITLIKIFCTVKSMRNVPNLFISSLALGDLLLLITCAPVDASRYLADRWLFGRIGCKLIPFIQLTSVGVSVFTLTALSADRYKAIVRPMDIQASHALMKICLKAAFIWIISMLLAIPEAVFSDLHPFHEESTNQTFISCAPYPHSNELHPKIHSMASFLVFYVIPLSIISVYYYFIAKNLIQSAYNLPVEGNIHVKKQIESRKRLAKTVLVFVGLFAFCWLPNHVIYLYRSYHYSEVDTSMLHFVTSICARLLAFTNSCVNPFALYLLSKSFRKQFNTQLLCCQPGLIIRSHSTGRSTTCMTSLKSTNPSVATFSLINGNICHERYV

## CSCC[C@H](NC(=O)[C@H](CC(C)C)NC(=O)[C@H](Cc1c[nH]cn1)NC(=O)CNC(=O)[C@@H](NC(=O)[C@H](C)NC(=O)[C@H](Cc1c[nH]c2ccccc12)NC(=O)[C@H](CCC(N)=O)NC(=O)CCOCCOCCOCCOCCNC(=O)CCCN1C(=O)CC(SC[C@H](NC(=O)CNC(=O)CC[C@H](C(=O)O)N2CCN(CC(=O)O)CCN(CC(=O)O)CC2)C(N)=O)C1=O)C(C)C)C(N)=O (some centres unmarked) [10 a, BBN7-14-NODA-GA]
GRPR
  IC50: 19.1 ± 1.44 nM
[1]
  logD: -3.78 ± 0.04
